These results are taken from US20230374038A1, “MODULATORS OF CYSTIC FIBROSIS TRANSMEMBRANE CONDUCTANCE REGULATOR” (VERTEX PHARMACEUTICALS INCORPORATED, priority 2020, published 2023).

Read-outs that look alike come from different tables or passages of the source.

One data set deals with T1, CFTR (Homo sapiens, UniProt P13569, DEL508-508).
T1 construct: endogenous in cells; host or cells: primary human bronchial epithelial cells, F508del/MF genotype
In words: HBE2 Assay: Ussing chamber assay of CFTR-mediated short-circuit currents in F508del/MF-HBE cells with 44 nM (6R,12R)-17-amino-12-methyl-6,15-bis(trifluoromethyl)-13,19-dioxa-3,4,18-triazatricyclo[12.3.1.12,5]nonadeca-1(18),2,4,14,16-pentaen-6-ol. The format is cell-based. The conditions noted are these: 3 μM with 44 nM (6R,12R)-17-amino-12-methyl-6,15-bis(trifluoromethyl)-13,19-dioxa-3,4,18-triazatricyclo[12.3.1.12,5]nonadeca-1(18),2,4,14,16-pentaen-6-ol, 18-24 hours, 20% human serum. How it is done: Ussing chamber experiments were performed using human bronchial epithelial (HBE) cells derived from CF subjects heterozygous for F508del and a minimal function CFTR mutation (F508del/MF-HBE) and cultured as previously described (Neuberger T, Burton B, Clark H, Van Goor F Methods Mol Biol 2011:741:39-54). After four days the apical media was removed, and the cells were grown at an air liquid interface for >14 days prior to use.
To isolate the CFTR-mediated short-circuit (ISC) current, F508del/MF-HBE grown on Costar® Snapwell™ cell culture inserts were mounted in an Ussing chamber and the transepithelial ISC was measured under voltage-clamp recording conditions (Vhold=0 mV) at 37° C. The basolateral solution contained (in mM) 145 NaCl, 0.83 K2HPO4, 3.3 KH2PO4, 1.2 MgCl2, 1.2 CaCl2), 10 Glucose, 10 HEPES (pH adjusted to 7.4 with NaOH) and the apical solution contained (in mM) 145 NaGluconate, 1.2 MgCl2, 1.2 CaCl2), 10 glucose, 10 HEPES (pH adjusted to 7.4 with NaOH) and 30 μM amiloride to block the epithelial sodium channel. Forskolin (20 μM) was added to the apical surface to activate CFTR, followed by apical addition of a CFTR inhibitor cocktail consisting of BPO, GlyH-101, and CFTR inhibitor 172 (each at 20 μM final assay concentration) to specifically isolate CFTR currents. The CFTR-mediated ISC (μA/cm^2) for each condition was determined from the peak forskolin response to the steady-state current following inhibition.
The activity of the CFTR corrector compounds on the CFTR-mediated ISC was determined in Ussing chamber studies as described above. The F508del/MF-HBE cell cultures were either incubated with the corrector compounds at a range of concentrations in combination with 44 nM (6R,12R)-17-amino-12-methyl-6,15-bis(trifluoromethyl)-13,19-dioxa-3,4,18-triazatricyclo[12.3.1.12,5]nonadeca-1(18),2,4,14,16-pentaen-6-ol or were incubated with the corrector compounds at a single fixed concentration of 1 and 3 μM in combination with 44 nM (6R,12R)-17-amino-12-methyl-6,15-bis(trifluoromethyl)-13,19-dioxa-3,4,18-triazatricyclo[12.3.1.12,5]nonadeca-1(18),2,4,14,16-pentaen-6-ol for 18-24 hours at 37° C. and in the presence of 20% human serum. The concentration of corrector compounds with 44 nM (6R,12R)-17-amino-12-methyl-6,15-bis(trifluoromethyl)-13,19-dioxa-3,4,18-triazatricyclo[12.3.1.12,5]nonadeca-1(18),2,4,14,16-pentaen-6-ol during the 18-24 hours incubations was kept constant throughout the Ussing chamber measurement of the CFTR-mediated ISC to ensure compounds were present throughout the entire experiment.

T1 sequence (P13569 with tags, fused parts or gaps DEL508-508): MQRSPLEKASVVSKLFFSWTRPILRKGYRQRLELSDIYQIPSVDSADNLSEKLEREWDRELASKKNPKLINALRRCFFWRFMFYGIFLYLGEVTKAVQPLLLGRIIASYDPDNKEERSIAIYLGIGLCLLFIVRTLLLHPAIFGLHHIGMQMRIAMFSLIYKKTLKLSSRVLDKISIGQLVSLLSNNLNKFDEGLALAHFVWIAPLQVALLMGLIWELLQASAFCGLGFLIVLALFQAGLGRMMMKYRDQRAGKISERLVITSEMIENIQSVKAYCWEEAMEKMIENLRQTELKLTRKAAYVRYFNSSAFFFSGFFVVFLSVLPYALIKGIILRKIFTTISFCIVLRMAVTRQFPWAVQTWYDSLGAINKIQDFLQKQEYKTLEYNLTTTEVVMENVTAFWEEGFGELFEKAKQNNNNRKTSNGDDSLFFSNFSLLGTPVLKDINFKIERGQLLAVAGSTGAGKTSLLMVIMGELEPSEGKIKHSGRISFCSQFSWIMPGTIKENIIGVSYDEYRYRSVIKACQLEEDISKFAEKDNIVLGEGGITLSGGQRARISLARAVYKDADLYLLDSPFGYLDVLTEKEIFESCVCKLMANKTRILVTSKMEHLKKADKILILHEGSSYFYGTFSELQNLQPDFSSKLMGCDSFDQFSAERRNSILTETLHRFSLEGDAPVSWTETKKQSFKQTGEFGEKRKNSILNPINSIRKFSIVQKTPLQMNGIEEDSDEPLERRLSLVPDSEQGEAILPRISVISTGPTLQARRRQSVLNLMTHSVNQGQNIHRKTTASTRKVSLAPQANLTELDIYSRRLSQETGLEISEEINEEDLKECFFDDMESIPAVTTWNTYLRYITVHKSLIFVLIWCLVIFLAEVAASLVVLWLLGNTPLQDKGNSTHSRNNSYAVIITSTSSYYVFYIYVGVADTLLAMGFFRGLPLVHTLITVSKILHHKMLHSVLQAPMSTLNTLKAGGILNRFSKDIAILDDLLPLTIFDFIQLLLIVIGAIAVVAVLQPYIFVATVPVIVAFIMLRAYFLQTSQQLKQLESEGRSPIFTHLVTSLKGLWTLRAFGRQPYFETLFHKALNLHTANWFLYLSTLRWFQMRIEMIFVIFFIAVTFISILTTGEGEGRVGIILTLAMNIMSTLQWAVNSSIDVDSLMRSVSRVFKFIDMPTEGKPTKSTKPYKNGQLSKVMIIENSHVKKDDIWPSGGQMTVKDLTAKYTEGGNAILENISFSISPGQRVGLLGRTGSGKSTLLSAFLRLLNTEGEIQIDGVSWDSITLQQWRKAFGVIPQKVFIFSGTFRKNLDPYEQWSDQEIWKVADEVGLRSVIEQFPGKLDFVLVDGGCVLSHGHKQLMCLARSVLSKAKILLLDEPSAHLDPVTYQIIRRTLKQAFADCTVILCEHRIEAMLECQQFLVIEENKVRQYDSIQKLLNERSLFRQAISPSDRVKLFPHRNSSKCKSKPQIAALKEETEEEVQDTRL

With `Cc1cccc(C)c1-c1nc2nc(c1F)OC[C@@H](CCC(C)(C)C)N(Cc1ncc(OC(C)C)cn1)C(=O)c1cccc(c1)S(=O)(=O)N2` [Compound 369], the “HBE2 Activity at 3 μM (%)” value on CFTR is recorded as “+++ (+++ is >60%)”.

Consider `Cc1cccc(C)c1-c1nc2nc(c1F)OC[C@@H](CCC(C)(C)C)N(Cc1cnc3cc(C(C)C)n(C)c3n1)C(=O)c1cccc(c1)S(=O)(=O)N2` [Compound 368], for which, at CFTR, the “HBE2 Activity at 3 μM (%)” value is reported as “+++ (+++ is >60%)”.

Regarding `CCc1c(Cl)nc2nc1Oc1ccc(Cl)c(c1)C(=O)Nc1cccc(c1)S(=O)(=O)N2`, the ring closure, isolated yield (from CCc1c(Cl)nc(NS(=O)(=O)c2cccc(N)c2)nc1Oc1ccc(Cl)c(C(=O)O)c1, amide bond, 14-membered ring, HATU/DIEA, DMF, 0.42 h, 3 steps) is 7%.

Turning to `Cc1cccc(CC(C)C)c1-c1nc2nc(c1C)OC[C@@H](CC(C)(C)C)N(Cc1cncc(N(C)C3CCC3)n1)C(=O)c1cccc(c1)S(=O)(=O)N2` (atropisomer, axis not shown) [Compound 357], the “HBE2 Activity at 3 μM (%)” value on CFTR is recorded as “+++ (+++ is >60%)”.

For `Cc1cccc(OC(C)C)c1-c1nc2nc(c1C)OC[C@@H](CC(C)(C)C)N(Cc1ncc(N3CCC(C)(C)C3)cn1)C(=O)c1cccc(c1)S(=O)(=O)N2` (atropisomer, axis not shown) [Compound 356], the “HBE2 Activity at 3 μM (%)” value at CFTR is “+++ (+++ is >60%)”.

For the molecule `Cc1cccc(C)c1-c1nc2cc(c1C(F)(F)F)OC[C@@H](CC(C)(C)C)N(Cc1cncc(N(C)C3CCC3)n1)C(=O)c1cccc(c1)S(=O)(=O)N2` [Compound 363, (11R)-12-[[6-[Cyclobutyl(methyl)amino]pyrazin-2-yl]methyl]-6-(2,6-dimethylphenyl)-11-(2,2-dimethylpropyl)-2,2-dioxo-7-(trifluoromethyl)-9-oxa-2λ^6-thia-3,5,12-triazatricyclo[12.3.1.14,8]nonadeca-1(18),4(19),5,7,14,16-hexaen-13-one], the “HBE2 Activity at 3 μM (%)” value at CFTR is given as “+++ (+++ is >60%)”.

Under “from Cc1cccc(C)c1-c1nc(NS(=O)(=O)c2cccc(C(=O)O)c2)nc(OC[C@@H](CC(C)C)NC2CC3(CCN(C(=O)OC(C)(C)C)CC3)C2)c1C, amide bond, 13-membered ring, HATU/DIEA, DMF, 9.1 mM, 3.0 h, 2 steps”, `Cc1cccc(C)c1-c1nc2nc(c1C)OC[C@@H](CC(C)C)N(C1CC3(CCN(C(=O)OC(C)(C)C)CC3)C1)C(=O)c1cccc(c1)S(=O)(=O)N2` registered a ring closure, isolated yield of 46%.

For the molecule `CC(C)=Cc1c(N2C(=O)c3cccc(c3)S(=O)(=O)Nc3nc(c(C)c(-c4c(C)cccc4C)n3)OC[C@H]2CC(C)(C)C)cnn1C` [Compound 361, (11R)-6-(2,6-Dimethylphenyl)-11-(2,2-dimethylpropyl)-7-methyl-12-[1-methyl-5-(2-methylprop-1-enyl)pyrazol-4-yl]-2,2-dioxo-9-oxa-2λ^6-thia-3,5,12,19-tetrazatricyclo[12.3.1.14,8]nonadeca-1(18),4(19),5,7,14,16-hexaen-13-one], on CFTR, the “HBE2 Activity at 3 μM (%)” value was “+++ (+++ is >60%)”.

`Cc1cccc(C)c1-c1nc2nc(c1F)OC[C@@H](CCC(C)(C)C)N(Cc1cncc(N3CCCC[C@H]3C)n1)C(=O)c1cccc(c1)S(=O)(=O)N2` [Compound 367]: the “HBE2 Activity at 3 μM (%)” value at CFTR is given as “+++ (+++ is >60%)”.

`CC(C)(C)c1c(Cl)nc2nc1OC1CN(Cc3ccccc31)C(=O)c1cccc(c1)S(=O)(=O)N2` (stereo not shown) showed a ring closure, isolated yield (from CC(C)(C)c1c(Cl)nc(NS(=O)(=O)c2cccc(C(=O)N3Cc4ccccc4C(O)C3)c2)nc1Cl, snar bond, 13-membered ring, NaH, NMP, 8.0 mM, 70.0 °C, 2.0 h) of 39%.

In the case of `Cc1cccc(C)c1-c1nc2nc(c1Br)O[C@H](C)CNC(=O)c1cccc(c1)S(=O)(=O)N2`, the ring closure, isolated yield (from Cc1cccc(C)c1-c1nc(NS(=O)(=O)c2cccc(C(=O)O)c2)nc(O[C@H](C)CN)c1Br, amide bond, 13-membered ring, HATU/HOBt/DIEA, DMF, 31.1 mM, 0.42 h) amounted to 54%.

`Cc1cccc(C)c1-c1nc2nc(c1C)OC[C@@H](CC(C)C)N(Cc1cncc(N(C)C3CCC3)n1)C(=O)c1cccc(c1)S(=O)(=O)N2` [Compound 358]: the “HBE2 Activity at 3 μM (%)” value at CFTR is given as “+++ (+++ is >60%)”.

As to `Cc1cccc(C)c1-c1nc2nc(c1F)OC[C@@H](CCC(C)(C)C)N(Cc1cncc(N(C)C3CCC3)n1)C(=O)c1cccc(c1)S(=O)(=O)N2` [Compound 365], the “HBE2 Activity at 3 μM (%)” value on CFTR was “+++ (+++ is >60%)”.

Consider `Cc1cccc(C)c1-c1nc2nc(c1C)OC[C@@H](CC(C)(C)C)N(c1cnn(C)c1CC(C)C)C(=O)c1cccc(c1)S(=O)(=O)N2` [Compound 364, (11R)-6-(2,6-Dimethylphenyl)-11-(2,2-dimethylpropyl)-12-(5-isobutyl-1-methyl-pyrazol-4-yl)-7-methyl-2,2-dioxo-9-oxa-2λ^6-thia-3,5,12,19-tetrazatricyclo[12.3.1.14,8]nonadeca-1(18),4(19),5,7,14,16-hexaen-13-one], for which, at CFTR, the “HBE2 Activity at 3 μM (%)” value is listed as “+++ (+++ is >60%)”.

With `Cc1cccc(CC2CCCCC2)c1-c1nc2nc(c1C)OC[C@@H](CC(C)(C)C)N(Cc1cncc(N(C)C3CCC3)n1)C(=O)c1cccc(c1)S(=O)(=O)N2` [Compound 360], the “HBE2 Activity at 3 μM (%)” value at CFTR is given as “+++ (+++ is >60%)”.

As for `Cc1cccc(CCC(C)C)c1-c1nc2nc(c1C)OC[C@@H](CC(C)(C)C)N(Cc1ncc(OC(C)C)cn1)C(=O)c1cccc(c1)S(=O)(=O)N2` (atropisomer, axis not shown; (M)) [Compound 333, (5M,11R)-11-(2,2-Dimethylpropyl)-7-methyl-6-[2-methyl-6-(3-methylbutyl)phenyl]-12-{[5-(propan-2-yloxy)pyrimidin-2-yl]methyl}-9-oxa-2λ^6-thia-3,5,12,19-tetraazatricyclo[12.3.1.14,8]nonadeca-1(17),4(19),5,7,14(18),15-hexaene-2,2,13-trione], at CFTR, the “HBE2 Activity at 3 μM (%)” value is “+++ (+++ is >60%)”.

Regarding `Cc1cccc(C)c1-c1nc2nc(c1F)OC[C@@H](CCC(C)(C)C)N(Cc1cncc(N3CCC[C@H]3C)n1)C(=O)c1cccc(c1)S(=O)(=O)N2` [Compound 366], the “HBE2 Activity at 3 μM (%)” value at CFTR was “+++ (+++ is >60%)”.

Turning to `Cc1cccc(CCC(C)C)c1-c1nc2nc(c1C)OC[C@@H](CC(C)(C)C)N(Cc1ncc(OC(C)C)cn1)C(=O)c1cccc(c1)S(=O)(=O)N2` (atropisomer, axis not shown; (P)) [Compound 334, (5P,11R)-11-(2,2-Dimethylpropyl)-7-methyl-6-[2-methyl-6-(3-methylbutyl)phenyl]-12-{[5-(propan-2-yloxy)pyrimidin-2-yl]methyl}-9-oxa-2λ^6-thia-3,5,12,19-tetraazatricyclo[12.3.1.14,8]nonadeca-1(17),4(19),5,7,14(18),15-hexaene-2,2,13-trione], at CFTR, the “HBE2 Activity at 3 μM (%)” value is “+++ (+++ is >60%)”.

Where the note is “from C=CCC[C@@](OCc1ccccc1)(c1nnc(-c2nc(O[C@H](C)CC=C)c(C(F)(F)F)cc2N(C(=O)OC(C)(C)C)C(=O)OC(C)(C)C)o1)C(F)(F)F, rcm bond, 14-membered ring, Grubbs 1st generation, DCE, 8.92 mM, 75.0 °C, 5.25 h”, `C[C@@H]1CC=CCC[C@](OCc2ccccc2)(C(F)(F)F)C2=NN=C(O2)c2nc(c(C(F)(F)F)cc2N(C(=O)OC(C)(C)C)C(=O)OC(C)(C)C)O1` (mixture of isomers) gave a ring closure, isolated yield of 53%.

The molecule `Cc1cccc(C)c1-c1nc2nc(c1Br)OC[C@@H](CC(C)C)N(C1CC3(CC3)C1)C(=O)c1cccc(c1)S(=O)(=O)N2` returned a ring closure, isolated yield (from Cc1cccc(C)c1-c1nc(NS(=O)(=O)c2cccc(C(=O)O)c2)nc(OC[C@@H](CC(C)C)NC2CC3(CC3)C2)c1Br, amide bond, 13-membered ring, HATU/DIEA, NMP, 105.0 mM, 24.0 h) of 53%.

`Cc1cccc(C)c1-c1nc2nc(c1C)OC[C@@H](CC(C)C)N(C1CC3(CC(NC(=O)OC(C)(C)C)C3)C1)C(=O)c1cccc(c1)S(=O)(=O)N2` (stereo partly shown) displayed a ring closure, isolated yield (from Cc1cccc(C)c1-c1nc(NS(=O)(=O)c2cccc(C(=O)O)c2)nc(OC[C@@H](CC(C)C)NC2CC3(CC(NC(=O)OC(C)(C)C)C3)C2)c1C, amide bond, 13-membered ring, HATU/DIEA, DMF, 14.1 mM, 3.0 h, 2 steps) of 45%.

For the molecule `Cc1cccc(C)c1-c1nc2nc(c1C)OC[C@@H](CC(C)(C)C)N(Cc1cncc(N(C)C3CCC3)n1)C(=O)c1cccc(c1)S(=O)(=O)N2` [Compound 359], the “HBE2 Activity at 3 μM (%)” value on CFTR is given as “+++ (+++ is >60%)”.
